Source: ChEMBL document CHEMBL6114945, “Cyclic vinyl sulfones activate NRF2 to protect from oxidative stress-induced programmed necrosis” (Bioorg Med Chem Lett, 2025)
Calls of active or inactive are those of the source. The rule behind the calls is not given here. Where a SMILES comes first, the peptide text is derived from it. The star is where a group is joined. Cbz = O=C(OCc1ccccc1)*

Columns and labels:
[1] = target: T1, Keap1/Nrf2 (Homo sapiens) (UniProt Q16236+Q14145); test: Inhibition of KEAP1 BTB domain-NRF2 protein-protein interaction in human HeLa cells assessed as upregulation of NRF2 level at 2.5 uM measured after 18 hrs by Western blotting analysis; assay type: cell-based
T1 sequence (Q14145 whole entry, looked up, the tested form may be a part): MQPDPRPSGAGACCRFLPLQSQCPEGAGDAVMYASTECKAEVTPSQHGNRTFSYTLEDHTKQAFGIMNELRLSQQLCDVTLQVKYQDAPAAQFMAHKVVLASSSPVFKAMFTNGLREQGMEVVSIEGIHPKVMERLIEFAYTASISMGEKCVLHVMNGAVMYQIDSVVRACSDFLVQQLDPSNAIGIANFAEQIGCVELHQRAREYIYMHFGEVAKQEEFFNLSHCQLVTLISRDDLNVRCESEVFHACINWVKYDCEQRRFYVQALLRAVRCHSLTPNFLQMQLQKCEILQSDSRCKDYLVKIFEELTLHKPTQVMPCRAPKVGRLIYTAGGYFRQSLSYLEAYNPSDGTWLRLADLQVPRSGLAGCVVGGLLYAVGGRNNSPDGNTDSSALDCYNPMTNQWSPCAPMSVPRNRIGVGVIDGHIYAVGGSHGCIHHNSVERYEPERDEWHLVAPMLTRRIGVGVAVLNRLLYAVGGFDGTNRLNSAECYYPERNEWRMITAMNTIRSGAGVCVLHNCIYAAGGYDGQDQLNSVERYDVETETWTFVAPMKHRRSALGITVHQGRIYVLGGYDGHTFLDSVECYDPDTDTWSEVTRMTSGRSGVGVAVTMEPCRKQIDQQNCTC
T1 sequence (Q16236 whole entry, looked up, the tested form may be a part): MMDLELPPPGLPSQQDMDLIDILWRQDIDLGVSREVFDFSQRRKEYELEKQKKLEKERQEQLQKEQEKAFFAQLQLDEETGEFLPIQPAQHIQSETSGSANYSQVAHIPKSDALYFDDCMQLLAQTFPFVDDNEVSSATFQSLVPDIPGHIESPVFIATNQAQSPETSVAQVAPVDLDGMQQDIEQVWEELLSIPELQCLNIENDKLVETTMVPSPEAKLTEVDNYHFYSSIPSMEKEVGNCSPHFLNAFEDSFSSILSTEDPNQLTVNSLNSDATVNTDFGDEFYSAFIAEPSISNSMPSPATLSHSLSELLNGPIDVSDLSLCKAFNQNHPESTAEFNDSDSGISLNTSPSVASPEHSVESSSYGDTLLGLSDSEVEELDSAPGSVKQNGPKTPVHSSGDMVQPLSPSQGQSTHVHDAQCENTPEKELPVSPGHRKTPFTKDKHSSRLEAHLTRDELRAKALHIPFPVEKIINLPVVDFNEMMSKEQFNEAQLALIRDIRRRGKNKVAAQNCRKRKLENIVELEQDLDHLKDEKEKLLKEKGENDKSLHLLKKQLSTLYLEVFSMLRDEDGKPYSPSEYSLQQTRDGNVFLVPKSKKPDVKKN

[2] = target: T1, Keap1/Nrf2 (Homo sapiens); test: Inhibition of KEAP1 BTB domain-NRF2 protein-protein interaction in human HeLa cells assessed as upregulation of HO-1 level at 5 uM measured after 18 hrs by Western blotting analysis; assay type: cell-based
A549 [3] = test: Inhibition of KEAP1 mutant-NRF2 protein-protein interaction in human A549 cells assessed as upregulation of HO-1 level at 2.5 to 20 uM measured after 18 hrs by Western blotting analysis; assay type: cell-based; details: dose 2.5-20 µM
HCT-116 [4] = test: Cytotoxicity against human HCT-116 cells at >20 uM; assay type: toxicity, cell-based; details: hct-116, 20 µM
[5] = target: T1, Keap1/Nrf2 (Homo sapiens); test: Inhibition of KEAP1 BTB domain-NRF2 protein-protein interaction in human HCT-116 cells assessed as upregulation of NRF2 level at 2.5 to 20 uM measured after 18 hrs by Western blotting analysis; assay type: cell-based; details: dose 2.5-20 µM
A549 [6] = test: Inhibition of KEAP1 mutant-NRF2 protein-protein interaction in human A549 cells assessed as upregulation of NRF2 level at 2.5 to 20 uM measured after 18 hrs by Western blotting analysis; assay type: cell-based; details: dose 2.5-20 µM
[7] = target: T1, Keap1/Nrf2 (Homo sapiens); test: Inhibition of KEAP1 BTB domain-NRF2 protein-protein interaction in human HeLa cells assessed as increase in NRF2 level at 50 nM measured after 6 hrs by Western blotting analysis; assay type: cell-based
[8] = Inhibition of proteasome-mediated NRF2 degradation in human HeLa cells assessed as increase in NRF2 level at 10 uM measured after 6 hrs by Western blotting analysis; assay type: toxicity, cell-based
[9] = target: T1, Keap1/Nrf2 (Homo sapiens); test: Inhibition of KEAP1 BTB domain-NRF2 protein-protein interaction in human NCI-H1299 cells assessed as upregulation of GCSc expression at 1.25 to 20 uM measured after 18 hrs by Western blot analysis; assay type: cell-based; details: dose 1.25-20 µM
HeLa [10] = test: Effect on KEAP1 mRNA expression level in human HeLa cells at 20 to 40 uM measured after 4 to 8 hrs by RT-PCR analysis; assay type: functional, cell-based; details: dose 20-40 µM, time 4-8 hrs
NCI-H1299 [11] = test: Protection against RSL3-induced ferroptosis in human NCI-H1299 cells at 5 to 10 uM preincubated for 6 hrs followed by RSL3 addition and measured after 18 hrs by crystal violet staining based assay; assay type: functional, cell-based; details: dose 5-10 µM, time 24.0 hrs
[12] = target: T1, Keap1/Nrf2 (Homo sapiens); test: Inhibition of KEAP1 BTB domain-NRF2 protein-protein interaction in human HeLa cells assessed as upregulation of HO-1 mRNA expression at 20 uM measured after 4 to 8 hrs by RT-PCR analysis; assay type: cell-based; details: time 4-8 hrs
[13] = target: T1, Keap1/Nrf2 (Homo sapiens); test: Inhibition of KEAP1 BTB domain-NRF2 protein-protein interaction in human HeLa cells assessed as upregulation of HO-1 level at 10 uM measured after 8 to 24 hrs by Western blotting analysis; assay type: cell-based; details: time 8-24 hrs
[14] = target: T1, Keap1/Nrf2 (Homo sapiens); test: Inhibition of KEAP1 BTB domain-NRF2 protein-protein interaction in human HeLa cells assessed as upregulation of NQO1 mRNA expression at 40 uM measured after 4 to 8 hrs by RT-PCR analysis; assay type: cell-based; details: time 4-8 hrs
[15] = target: T1, Keap1/Nrf2 (Homo sapiens); test: Inhibition of KEAP1 BTB domain-NRF2 protein-protein interaction in human HeLa cells assessed as upregulation of p-62 mRNA expression at 20 to 40 uM measured after 8 hrs by RT-PCR analysis; assay type: cell-based; details: dose 20-40 µM
HeLa [16] = test: Cytotoxicity against human HeLa cells at 40 uM; assay type: toxicity, cell-based
[17] = target: Kelch-like ECH-associated protein 1 (Homo sapiens) (UniProt Q14145); test: Binding affinity to KEAP1 in human HeLa cells assessed as appearance of high molecular weight bands of modified KEAP1 at 10 uM measured after 4 to 24 hrs by Western blotting analysis; assay type: cell-based; details: time 4-24 hrs
Kelch-like ECH-associated protein 1 (Homo sapiens), sequence (Q14145 whole entry): as the sequence (Q14145 whole entry, looked up, the tested form may be a part) above

HCT-116 [18] = test: Cytotoxicity against human HCT-116 cells at 40 uM; assay type: toxicity, cell-based; details: hct-116, 40 µM
[19] = target: T1, Keap1/Nrf2 (Homo sapiens); test: Inhibition of KEAP1 BTB domain-NRF2 protein-protein interaction in human HeLa cells assessed as upregulation of HO-1 level at 40 uM measured after 18 hrs by Western blotting analysis; assay type: cell-based
[20] = target: T1, Keap1/Nrf2 (Homo sapiens); test: Inhibition of KEAP1 BTB domain-NRF2 protein-protein interaction in human NCI-H1299 cells assessed as increase in nuclear localization of NRF2 at 20 uM measured after 18 hrs by immunostaining based microscopic analysis; assay type: cell-based
[21] = target: T1, Keap1/Nrf2 (Homo sapiens); test: Inhibition of KEAP1 BTB domain-NRF2 protein-protein interaction in human HeLa cells assessed as upregulation of NRF2 mRNA expression at 20 to 40 uM measured after 4 hrs by RT-PCR analysis; assay type: cell-based; details: dose 20-40 µM
[22] = target: T1, Keap1/Nrf2 (Homo sapiens); test: Inhibition of KEAP1 BTB domain-NRF2 protein-protein interaction in human NCI-H1299 cells assessed as upregulation of SLC7A11 expression at 1.25 to 20 uM measured after 18 hrs by Western blot analysis; assay type: cell-based; details: dose 1.25-20 µM
NCI-H1299 [23] = test: Protection against RSL3-induced ferroptosis in human NCI-H1299 cells at 10 uM preincubated for 6 hrs followed by RSL3 addition and measured after 18 hrs by phase contrast microscopy; assay type: functional, cell-based
NCI-H1299 [24] = test: Protection against RSL3-induced ferroptosis in human NCI-H1299 cells assessed as reduction in cell death at 5 to 10 uM preincubated for 6 hrs followed by RSL3 addition and measured after 18 hrs by morphological analysis; assay type: functional, cell-based; details: dose 5-10 µM, time 24.0 hrs
[25] = target: T1, Keap1/Nrf2 (Homo sapiens); test: Inhibition of KEAP1 BTB domain-NRF2 protein-protein interaction in human NCI-H1299 cells assessed as upregulation of HO-1 expression at 1.25 to 20 uM measured after 6 hrs by Western blot analysis; assay type: cell-based; details: dose 1.25-20 µM
[26] = target: T1, Keap1/Nrf2 (Homo sapiens); test: Inhibition of KEAP1 BTB domain-NRF2 protein-protein interaction in human HCT-116 cells assessed as upregulation of NRF2 level at 2.5 to 40 uM measured after 18 hrs by Western blotting analysis; assay type: cell-based; details: dose 2.5-40 µM
[27] = target: Kelch-like ECH-associated protein 1 (Homo sapiens) (UniProt Q14145); test: Binding affinity to KEAP1 in human HCT-116 cells assessed as appearance of high molecular weight bands of modified KEAP1 at 2.5 to 40 uM measured after 18 hrs by Western blotting analysis; assay type: cell-based; details: dose 2.5-40 µM
HeLa [28] = test: Protection against erastin-induced ferroptosis in human HeLa cells assessed as reduction in cell death; assay type: functional, cell-based
[29] = target: T1, Keap1/Nrf2 (Homo sapiens); test: Inhibition of KEAP1 BTB domain-NRF2 protein-protein interaction in human HeLa cells assessed as upregulation of NRF2 level at 10 uM measured after 8 to 24 hrs by Western blotting analysis; assay type: cell-based; details: time 8-24 hrs
[30] = target: T1, Keap1/Nrf2 (Homo sapiens); test: Inhibition of KEAP1 BTB domain-NRF2 protein-protein interaction in human NCI-H1299 cells assessed as upregulation of p-62 expression at 1.25 to 20 uM measured after 18 hrs by Western blot analysis; assay type: cell-based; details: dose 1.25-20 µM
[31] = target: T1, Keap1/Nrf2 (Homo sapiens); test: Inhibition of KEAP1 BTB domain-NRF2 protein-protein interaction in human HeLa cells assessed as upregulation of NRF2 level at 5 to 40 uM measured after 18 hrs by Western blotting analysis; assay type: cell-based; details: dose 5-40 µM
[32] = target: T1, Keap1/Nrf2 (Homo sapiens); test: Inhibition of KEAP1 BTB domain-NRF2 protein-protein interaction in human HeLa cells assessed as upregulation of NRF2 mRNA expression at 20 to 40 uM measured after 8 hrs by RT-PCR analysis; assay type: cell-based; details: dose 20-40 µM
[33] = target: T1, Keap1/Nrf2 (Homo sapiens); test: Inhibition of KEAP1 BTB domain-NRF2 protein-protein interaction in human HeLa cells assessed as upregulation of NQO1 mRNA expression at 20 uM measured after 8 hrs by RT-PCR analysis; assay type: cell-based
[34] = target: T1, Keap1/Nrf2 (Homo sapiens); test: Inhibition of KEAP1-NRF2 protein-protein interaction in human HeLa cells assessed as increase in NRF2 level at 50 uM measured after 6 hrs by Western blotting analysis; assay type: cell-based

With `CC1=C2C(CCS2(=O)=O)c2c(O)ccc(O)c2C1` (centres undefined) the inhibition [1] was “Active”, the inhibition [2] was “Active” and the inhibition (A549 [3]) was “inactive”. For the same compound, the Activity (HCT-116 [4]) was “Toxic”, the inhibition [5] was “Active; Upregulated Nrf2 To A Lesser Degree” and the inhibition (A549 [6]) was “inactive”.

With `CC1(C)CC[C@]2(C(=O)O)CC[C@]3(C)[C@H](C(=O)C=C4[C@@]5(C)C=C(C#N)C(=O)C(C)(C)[C@@H]5CC[C@]43C)[C@@H]2C1` the inhibition [7] was “Active”.

In the case of `CC(C)C[C@@H](C=O)NC(=O)[C@H](CC(C)C)NC(=O)[C@H](CC(C)C)NC(=O)OCc1ccccc1` [MG-132] (Cbz-Leu-Leu-Leu-aldehyde), the “inhibition (INH)” value [8] was “Active”.

With `CC1=C2C(CCS2(=O)=O)c2c(c(O)c3ccccc3c2O)C1` (centres undefined) the inhibition [9] was “Active”, the Activity (HeLa [10]) was “inactive” and the Activity (NCI-H1299 [11]) was “Active; Almost Complete Protection Observed”. The inhibition [12] was “Active; Significant Changes Observed”, the inhibition [13] was “Active; Most Efficient Effect Was Observed After 8 Hrs” and the inhibition [14] was “Active; Highly Upregulated”. For the same compound, the inhibition [15] was “Active; Significant Upregulation Observed”, the Activity (HeLa [16]) was “Non-toxic” and the Activity [17] was “Active”. The Activity (HCT-116 [18]) was “Non-toxic”, the inhibition [19] was “Active; Most Efficiently Upregulated The Ho-1 Level At 40 Um” and the inhibition [20] was “Active”. For the same compound, the inhibition [21] was “inactive”, the inhibition [22] was “Active” and the Activity (NCI-H1299 [23]) was “Active; Slightly More Profound Effect Observed At 10 Um”. The Activity (NCI-H1299 [24]) was “Active; Almost Complete Protection Observed”, the inhibition [25] was “Active” and the inhibition [26] was “Active; Stronger Activation Of Nrf2 Observed”. For the same compound, the Activity [27] was “Active”, the Activity (HeLa [28]) was “Active” and the inhibition [29] was “Active; Most Efficient Effect Was Observed After 8 Hrs”. For the same compound, the inhibition [30] was “Active”, the inhibition [31] was “Active; Stronger Activation Of Nrf2 Observed” and the inhibition [32] was “Active”. The inhibition [33] was “Active”.

With `CC(C)(C)c1cc(O)ccc1O` the inhibition [34] was “Active”.
